Activity calls are given as the source filed them. The calls are words filed in the database; no cut-off is given here.
Experiments:
Plasma [1] = experiment: Induction of platelet aggregation in human platelet rich plasma at plasma peak concentration of 10 times anti-thrombosis ED50 measured after 10 mins by light transmission aggregometry
[2] = biological target: Prothrombin (Homo sapiens) (UniProt P00734); experiment: Inhibition of factor 2a (unknown origin) at IC50 preincubated for 1 min followed by chromogenic substrate addition and measured for 2 mins; details: time 3.0 min
[3] = biological target: T1, Coagulation factor VII (Homo sapiens) (UniProt P08709); experiment: Inhibition of factor 7a (unknown origin) at IC50 using pefachrome factor VIIa as substrate preincubated for 1 min followed by chromogenic substrate addition and measured for 2 mins; details: time 3.0 min
T1 sequence (whole entry): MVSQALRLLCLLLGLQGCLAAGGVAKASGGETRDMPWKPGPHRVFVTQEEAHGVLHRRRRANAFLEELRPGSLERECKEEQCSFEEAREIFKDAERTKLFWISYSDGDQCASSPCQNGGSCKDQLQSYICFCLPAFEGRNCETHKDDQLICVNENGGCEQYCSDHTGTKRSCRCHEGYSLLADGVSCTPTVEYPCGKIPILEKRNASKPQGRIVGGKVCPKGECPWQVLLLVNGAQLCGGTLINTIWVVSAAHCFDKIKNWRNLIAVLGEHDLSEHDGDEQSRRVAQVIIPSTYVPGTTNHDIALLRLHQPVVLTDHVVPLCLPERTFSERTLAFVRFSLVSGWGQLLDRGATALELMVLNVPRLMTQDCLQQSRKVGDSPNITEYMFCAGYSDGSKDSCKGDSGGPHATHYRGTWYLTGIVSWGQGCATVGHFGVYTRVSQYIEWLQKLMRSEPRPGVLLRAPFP

[4] = biological target: Coagulation factor X (Homo sapiens) (UniProt P00742); experiment: Inhibition of factor 10a (unknown origin) at IC50 preincubated for 1 min followed by chromogenic substrate addition and measured for 2 mins; details: time 3.0 min
Sequence of Coagulation factor X (Homo sapiens) (P00742 41-179 limits assumed): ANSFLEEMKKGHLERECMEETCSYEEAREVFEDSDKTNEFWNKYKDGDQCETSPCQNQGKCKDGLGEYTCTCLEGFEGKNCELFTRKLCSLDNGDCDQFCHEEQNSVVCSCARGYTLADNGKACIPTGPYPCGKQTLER
Sequence of Coagulation factor X (Homo sapiens) (P00742 235-488 limits assumed): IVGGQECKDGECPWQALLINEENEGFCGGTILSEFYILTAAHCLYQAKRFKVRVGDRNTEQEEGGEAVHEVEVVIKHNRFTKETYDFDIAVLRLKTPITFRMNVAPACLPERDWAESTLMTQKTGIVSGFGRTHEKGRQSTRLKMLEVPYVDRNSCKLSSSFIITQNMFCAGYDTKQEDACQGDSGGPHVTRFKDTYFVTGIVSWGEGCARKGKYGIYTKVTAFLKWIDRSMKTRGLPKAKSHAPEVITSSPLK

[5] = biological target: Coagulation factor XI (Homo sapiens) (UniProt P03951); experiment: Inhibition of factor 11a (unknown origin) at IC50 using S-2366 as substrate preincubated for 1 min followed by chromogenic substrate addition and measured for 2 mins; details: time 3.0 min
Sequence of Coagulation factor XI (Homo sapiens) (P03951 19-387 limits assumed): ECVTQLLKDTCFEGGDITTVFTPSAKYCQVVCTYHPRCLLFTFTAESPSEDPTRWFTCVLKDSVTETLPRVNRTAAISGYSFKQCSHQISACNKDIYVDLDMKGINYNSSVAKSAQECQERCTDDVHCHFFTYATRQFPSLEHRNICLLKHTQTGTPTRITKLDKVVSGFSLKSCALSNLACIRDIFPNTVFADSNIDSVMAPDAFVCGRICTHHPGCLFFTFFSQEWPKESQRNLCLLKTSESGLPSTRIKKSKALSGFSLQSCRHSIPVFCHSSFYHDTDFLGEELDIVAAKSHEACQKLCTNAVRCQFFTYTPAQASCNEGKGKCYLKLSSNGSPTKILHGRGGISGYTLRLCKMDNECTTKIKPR
Sequence of Coagulation factor XI (Homo sapiens) (P03951 388-625 limits assumed): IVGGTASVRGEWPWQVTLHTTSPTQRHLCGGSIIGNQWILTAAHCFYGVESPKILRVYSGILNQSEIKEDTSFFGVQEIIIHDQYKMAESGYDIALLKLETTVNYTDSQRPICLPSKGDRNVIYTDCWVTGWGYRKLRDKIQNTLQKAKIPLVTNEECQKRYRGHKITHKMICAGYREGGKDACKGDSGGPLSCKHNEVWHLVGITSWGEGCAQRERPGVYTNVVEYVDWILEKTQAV

[6] = biological target: T2, Coagulation factor XII (Homo sapiens) (UniProt P00748); experiment: Inhibition of factor 12a (unknown origin) at IC50 using kallikrein chromogenic substrate preincubated for 1 min followed by chromogenic substrate addition and measured for 2 mins; details: time 3.0 min
T2 sequence (whole entry): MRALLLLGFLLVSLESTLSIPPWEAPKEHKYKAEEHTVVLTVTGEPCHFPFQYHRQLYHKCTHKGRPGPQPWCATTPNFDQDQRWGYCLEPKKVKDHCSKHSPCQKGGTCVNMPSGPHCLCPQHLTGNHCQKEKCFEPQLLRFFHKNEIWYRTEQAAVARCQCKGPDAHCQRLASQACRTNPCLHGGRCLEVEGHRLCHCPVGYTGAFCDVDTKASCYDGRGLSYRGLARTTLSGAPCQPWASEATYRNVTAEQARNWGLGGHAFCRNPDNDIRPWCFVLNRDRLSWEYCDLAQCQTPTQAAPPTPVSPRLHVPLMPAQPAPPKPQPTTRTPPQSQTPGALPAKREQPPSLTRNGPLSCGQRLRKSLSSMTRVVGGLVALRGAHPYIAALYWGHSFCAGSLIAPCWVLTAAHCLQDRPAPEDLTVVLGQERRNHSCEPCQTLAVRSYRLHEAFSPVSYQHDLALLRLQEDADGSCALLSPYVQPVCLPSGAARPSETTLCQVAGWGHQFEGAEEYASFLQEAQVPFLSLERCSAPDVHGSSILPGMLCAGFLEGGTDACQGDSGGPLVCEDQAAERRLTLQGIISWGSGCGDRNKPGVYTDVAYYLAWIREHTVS

[7] = biological target: Prothrombin (Homo sapiens) (UniProt P00734); experiment: Inhibition of factor 2a (unknown origin) at IC50 preincubated for 1 min followed by chromogenic substrate addition and measured for 2 mins in presence of AT-III; details: time 3.0 min
[8] = biological target: T1, Coagulation factor VII (Homo sapiens); experiment: Inhibition of factor 7a (unknown origin) at IC50 using pefachrome factor VIIa as substrate preincubated for 1 min followed by chromogenic substrate addition and measured for 2 mins in presence of AT-III; details: time 3.0 min
[9] = biological target: Coagulation factor X (Homo sapiens) (UniProt P00742); experiment: Inhibition of factor 10a (unknown origin) at IC50 preincubated for 1 min followed by chromogenic substrate addition and measured for 2 mins in presence of AT-III; details: time 3.0 min
[10] = biological target: Coagulation factor XI (Homo sapiens) (UniProt P03951); experiment: Inhibition of factor 11a (unknown origin) at IC50 using S-2366 as substrate preincubated for 1 min followed by chromogenic substrate addition and measured for 2 mins in presence of AT-III; details: time 3.0 min
[11] = biological target: T2, Coagulation factor XII (Homo sapiens); experiment: Inhibition of factor 12a (unknown origin) at IC50 using kallikrein chromogenic substrate preincubated for 1 min followed by chromogenic substrate addition and measured for 2 mins in presence of AT-III; details: time 3.0 min
[12] = biological target: Prothrombin (Homo sapiens) (UniProt P00734); experiment: Inhibition of factor 2a (unknown origin) at IC90 preincubated for 1 min followed by chromogenic substrate addition and measured for 2 mins in presence of AT-III; details: time 3.0 min
[13] = biological target: Coagulation factor XI (Homo sapiens) (UniProt P03951); experiment: Inhibition of factor 11a (unknown origin) at IC90 using S-2366 as substrate preincubated for 1 min followed by chromogenic substrate addition and measured for 2 mins in presence of AT-III; details: time 3.0 min
[14] = biological target: Coagulation factor X (Homo sapiens) (UniProt P00742); experiment: Inhibition of factor 10a (unknown origin) at IC90 preincubated for 1 min followed by chromogenic substrate addition and measured for 2 mins in presence of AT-III relative to control; details: time 3.0 min
Plasma [15] = experiment: Anticoagulation activity in AT-III-deficient human plasma preincubated for 2 mins followed by APTT reagent and measured after 3 mins by coagulometric method; format: functional, cell-free; details: time 5.0 min
Plasma [16] = experiment: Anticoagulation activity in HCII-deficient human plasma preincubated for 2 mins followed by APTT reagent and measured after 3 mins by coagulometric method; format: functional, cell-free; details: time 5.0 min
Plasma [17] = experiment: Induction of platelet aggregation in rat wash platelet at plasma peak concentration of 10 times anti-thrombosis ED50 measured after 10 mins by light transmission aggregometry
Plasma [18] = experiment: (§1) Anticoagulation activity in human plasma assessed as drug level causing 20 times doubling of APTT preincubated for 2 mins followed by APTT reagent and measured after 3 mins by coagulometric method relative to dHG-5; format: functional; details: time 5 min
[19] = biological target: T3, Coagulation factor IX/VIII (Homo sapiens) (UniProt P00740+P00451); experiment: (§2) Inhibition of human citrated plasma iXase (factor 8a-factor 9a complex) preincubated for 2 mins followed by factor 10 addition and measured after 1 min by FXa chromogenic substrate SXa-11 based assay relative to dHG-5; format: protein-complex assay; details: time 3.0 min
Coagulation factor IX [20] = biological target: T4, Coagulation factor IX (Homo sapiens, UniProt P00740); experiment: Inhibition of factor 9a (unknown origin) binding to immobilized biotinylated oHG-11 by biolayer interferometry relative to dHG-5
T4 sequence (P00740 47-191 limits assumed): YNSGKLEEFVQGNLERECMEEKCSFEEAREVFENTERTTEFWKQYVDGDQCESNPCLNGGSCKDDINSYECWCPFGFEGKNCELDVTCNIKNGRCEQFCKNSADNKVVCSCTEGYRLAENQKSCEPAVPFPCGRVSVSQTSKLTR
T4 sequence (P00740 227-461 limits assumed): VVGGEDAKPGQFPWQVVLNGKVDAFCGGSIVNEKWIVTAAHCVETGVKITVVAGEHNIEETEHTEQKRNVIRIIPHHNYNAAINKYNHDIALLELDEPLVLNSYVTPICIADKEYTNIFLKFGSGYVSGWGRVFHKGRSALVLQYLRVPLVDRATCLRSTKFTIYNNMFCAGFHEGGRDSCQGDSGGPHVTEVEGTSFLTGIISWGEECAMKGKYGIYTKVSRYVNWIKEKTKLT

Rattus norvegicus [21] = experiment: (§3) Antithrombotic activity in thromboplastin and stasis-induced Sprague-Dawley rat deep venous thrombosis model assessed as reduction in venous thrombosis at 4.94 mg/kg, sc administered 1 hr prior to thromboplastin addition for 20 secs followed by establishment of stasis for 20 mins relative to dHG-5; format: functional; details: time 80.33 min, 1.339 h
Plasma [22] = experiment: as §1, with “of APTT by measuring activity potency of oligosaccharides multiplied by the percentage of oligosaccharides in dHG-5 preincubated for” for “of APTT preincubated for”; format: functional; details: time 5 min
[23] = biological target: T3, Coagulation factor IX/VIII (Homo sapiens); experiment: as §2, with “complex) assessed as activity potency of oligosaccharides multiplied by the percentage of oligosaccharides in dHG-5” for “complex)”; format: protein-complex assay; details: time 3.0 min
Coagulation factor IX [24] = biological target: T4, Coagulation factor IX; experiment: Inhibition of factor 9a (unknown origin) binding to immobilized biotinylated oHG-11 assessed as activity potency of oligosaccharides multiplied by the percentage of oligosaccharides in dHG-5 by biolayer interferometry relative to dHG-5
Rattus norvegicus [25] = experiment: as §3, with “venous thrombosis by measuring activity potency of oligosaccharides multiplied by the percentage of oligosaccharides in dHG-5 at 4.94” for “venous thrombosis at 4.94”; format: functional; details: time 80.33 min, 1.339 h
[26] = biological target: Coagulation factor IX/VIII (Homo sapiens, UniProt P00451+P00740); experiment: Inhibition of human citrated plasma iXase (factor 8a-factor 9a complex) preincubated for 2 mins followed by factor 10 addition and measured after 1 min by FXa chromogenic substrate SXa-11 based assay; format: protein-complex assay
Sequence of Coagulation factor IX/VIII (P00451 20-759 limits assumed): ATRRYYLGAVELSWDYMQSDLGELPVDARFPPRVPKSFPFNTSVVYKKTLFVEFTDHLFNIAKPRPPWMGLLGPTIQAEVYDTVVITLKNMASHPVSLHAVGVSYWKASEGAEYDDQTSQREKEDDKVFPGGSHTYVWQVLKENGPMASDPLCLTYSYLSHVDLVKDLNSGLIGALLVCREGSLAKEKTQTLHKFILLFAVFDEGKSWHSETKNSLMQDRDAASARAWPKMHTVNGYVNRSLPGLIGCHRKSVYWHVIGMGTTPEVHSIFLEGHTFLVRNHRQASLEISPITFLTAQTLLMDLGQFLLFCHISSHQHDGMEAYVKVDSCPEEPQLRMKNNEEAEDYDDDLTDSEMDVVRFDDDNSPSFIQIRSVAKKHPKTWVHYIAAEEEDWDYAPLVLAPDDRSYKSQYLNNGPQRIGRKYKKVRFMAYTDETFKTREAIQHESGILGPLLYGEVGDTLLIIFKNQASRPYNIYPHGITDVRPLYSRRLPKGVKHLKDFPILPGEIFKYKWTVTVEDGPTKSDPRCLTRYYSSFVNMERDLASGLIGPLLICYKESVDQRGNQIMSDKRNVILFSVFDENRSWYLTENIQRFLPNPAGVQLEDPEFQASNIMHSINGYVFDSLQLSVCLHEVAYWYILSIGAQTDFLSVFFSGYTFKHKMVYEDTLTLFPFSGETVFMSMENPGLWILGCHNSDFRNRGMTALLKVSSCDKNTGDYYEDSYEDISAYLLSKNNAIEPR
Sequence of Coagulation factor IX/VIII (P00451 1668-2351 limits assumed): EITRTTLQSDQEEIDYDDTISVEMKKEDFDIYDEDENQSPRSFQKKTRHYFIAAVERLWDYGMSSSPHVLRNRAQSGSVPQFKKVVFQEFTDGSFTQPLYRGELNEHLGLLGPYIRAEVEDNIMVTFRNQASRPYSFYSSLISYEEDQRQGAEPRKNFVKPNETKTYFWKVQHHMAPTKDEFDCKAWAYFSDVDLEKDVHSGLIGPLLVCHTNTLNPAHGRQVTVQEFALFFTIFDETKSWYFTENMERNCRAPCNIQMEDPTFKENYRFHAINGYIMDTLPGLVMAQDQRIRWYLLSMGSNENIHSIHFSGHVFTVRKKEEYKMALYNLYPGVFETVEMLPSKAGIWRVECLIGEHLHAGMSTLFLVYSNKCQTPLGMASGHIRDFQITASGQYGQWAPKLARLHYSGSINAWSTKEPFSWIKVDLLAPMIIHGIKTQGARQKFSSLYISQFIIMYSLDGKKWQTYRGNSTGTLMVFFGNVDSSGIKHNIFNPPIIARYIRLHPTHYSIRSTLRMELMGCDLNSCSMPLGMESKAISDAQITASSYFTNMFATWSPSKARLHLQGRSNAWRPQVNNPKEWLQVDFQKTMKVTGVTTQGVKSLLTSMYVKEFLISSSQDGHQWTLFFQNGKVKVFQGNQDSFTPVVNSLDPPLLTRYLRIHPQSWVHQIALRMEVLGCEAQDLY
Sequence of Coagulation factor IX/VIII (P00740 47-191 limits assumed): as the sequence (P00740 47-191 limits assumed) above
Sequence of Coagulation factor IX/VIII (P00740 227-461 limits assumed): as the sequence (P00740 227-461 limits assumed) above

Coagulation factor IX [27] = biological target: T4, Coagulation factor IX; experiment: Inhibition of factor 9a (unknown origin) binding to immobilized biotinylated oHG-11 by biolayer interferometry
Plasma [28] = experiment: Anticoagulation activity in human plasma assessed as drug level causing 20 times doubling of APTT preincubated for 2 mins followed by APTT reagent and measured after 3 mins by coagulometric method; format: functional; details: time 5 min
Rattus norvegicus [29] = experiment: Antithrombotic activity in thromboplastin and stasis-induced Sprague-Dawley rat deep venous thrombosis model assessed as reduction in venous thrombosis at 13.5 mg/kg, sc administered 1 hr prior to thromboplastin addition for 20 secs followed by establishment of stasis for 20 mins; format: functional; design: scale not given: the % may be the effect or the level left; details: time 80.33 min, 1.339 h
Rattus norvegicus [30] = experiment: (§4) Antithrombotic activity in thromboplastin and stasis-induced Sprague-Dawley rat deep venous thrombosis model assessed as reduction in venous thrombosis at 13.5 mg/kg, sc administered 1 hr prior to thromboplastin addition for 20 secs followed by establishment of stasis for 20 mins relative to dHG-5; format: functional; details: time 80.33 min, 1.339 h
Rattus norvegicus [31] = experiment: as §4, with “venous thrombosis by measuring activity potency of oligosaccharides multiplied by the percentage of oligosaccharides in dHG-5 at 13.5” for “venous thrombosis at 13.5”; format: functional; details: time 80.33 min, 1.339 h

| inhibition [2] | inhibition (active/not active) [3] | inhibition [4] | inhibition [5] | inhibition [6] | inhibition [7] | inhibition [8] | inhibition [9] | inhibition [10] | inhibition [11] | inhibition [12] | inhibition [13] | inhibition [14] [%] | Ratio [19] [U] | Ratio (Coagulation factor IX [20]) [U] | Ratio [23] [U] | SMILES | Activity (Plasma [15]) | Activity (Plasma [16]) | Ratio (Plasma [18]) [U] | Ratio (Plasma [22]) [U] | further results |
| --- | --- | --- | --- | --- | --- | --- | --- | --- | --- | --- | --- | --- | --- | --- | --- | --- | --- | --- | --- | --- | --- |
| inactive | inactive | inactive | inactive | inactive | inactive | inactive | inactive | inactive | inactive | Active | Active | 14.2 | 8.98 | 13 | 1.56 | CC(=O)N[C@H]1[C@H](O[C@@H]([C@H](O[C@@H]2O[C@@H](C)[C@@H](OS(=O)(=O)[O-])[C@@H](OS(=O)(=O)O)[C@@H]2O)[C@@H](O)CO)[C@H](O)C(=O)[O-])O[C@@H](COS(=O)(=O)[O-])[C@H](OS(=O)(=O)[O-])[C@@H]1O[C@@H]1O[C@H](C(=O)[O-])[C@@H](O[C@@H]2O[C@H](COS(=O)(=O)[O-])[C@H](OS(=O)(=O)[O-])[C@H](O[C@@H]3OC(C(=O)[O-])=C[C@H](O[C@@H]4O[C@@H](C)[C@@H](OS(=O)(=O)[O-])[C@@H](S(=O)(=O)O)[C@@H]4O)[C@H]3O)[C@H]2NC(C)=O)[C@H](O[C@@H]2O[C@@H](C)[C@@H](OS(=O)(=O)[O-])[C@@H](OS(=O)(=O)O)[C@@H]2O)[C@@H]1O.[Na+].[Na+].[Na+].[Na+].[Na+].[Na+].[Na+].[Na+].[Na+].[Na+] | Active | Active | 10.96 | 1.91 | Activity (Plasma [1]): Not Active; Activity (Plasma [17]): Not Active; Ratio (Rattus norvegicus [21]): 24.31 U; Ratio (Coagulation factor IX [24]): 2.27 U; Ratio (Rattus norvegicus [25]): 4.23 U |
| inactive | Active | inactive | inactive | inactive | inactive | inactive | inactive | inactive | inactive | Active | Active | 14.2 | 0.36 | 3.32 | 0.02 | CC(=O)N[C@H]1[C@H](O[C@@H]([C@H](O[C@@H]2O[C@@H](C)[C@@H](OS(=O)(=O)[O-])[C@@H](OS(=O)(=O)O)[C@@H]2O)[C@@H](O)CO)[C@H](O)C(=O)[O-])O[C@H](COS(=O)(=O)[O-])[C@H](OS(=O)(=O)[O-])[C@@H]1O[C@@H]1OC(C(=O)[O-])=C[C@H](O[C@@H]2O[C@@H](C)[C@@H](OS(=O)(=O)[O-])[C@@H](OS(=O)(=O)O)[C@@H]2O)[C@H]1O.[Na+].[Na+].[Na+].[Na+].[Na+].[Na+] | Active | Active | 0.9 | 0.04 | IC50 [26]: > 3 µM; IC50 (Coagulation factor IX [27]): 12.9 µM; EC (Plasma [28]): 199 µM; Activity (Rattus norvegicus [29]): 30.8%; Ratio (Rattus norvegicus [30]): 3.96 U; Ratio (Coagulation factor IX [24]): 0.16 U; Ratio (Rattus norvegicus [31]): 0.19 U |

— ChEMBL document CHEMBL4765450, “The components and activities analysis of a novel anticoagulant candidate dHG-5” (Eur J Med Chem, 2020)
